In patent publication US5707966A, “Antithrombotic agents” (Eli Lilly and Company, priority 1995, dated 1998):
Counter-ions that a name gives are not always drawn. Like-named read-outs stand apart in the source and are kept apart here.

What was measured:
Type in all cases: biochemical
Human Thrombin = Human Thrombin (Homo sapiens, UniProt P00734); test: Inhibition of amidase activity of thrombin (Kass)
factor Xa = biological target: T1, factor Xa (Homo sapiens, UniProt P00742); test: Kass with factor Xa, chromogenic substrate; conditions: substrate N-Benzoyl-Ile-Glu-Gly-Arg-p-nitroanilide
T1 construct: Human factors X, Xa, IXa, XIa, and XIIa are purchased; purchased Enzyme Research Laboratories, South Bend, Ind
Description: (§1) By substantially following the procedures described above for human thrombin, and using other human blood coagulation system serine proteases and proteases of the fibrinolytic system with the appropriate chromogenic substrates, identified below, selectivity of the compounds of the present invention with respect to the coagulation factor serine proteases and with respect to the fibrinolytic system serine proteases are evaluated as well as their substantial lack of interference with serine proteases of the fibrinolytic system. Thrombin inhibitors preferably should spare fibrinolysis induced by urokinase, tissue plasminogen activator (t-PA) and streptokinase. This would be important to the therapeutic use of such agents as an adjunct to streptokinase, t-PA or urokinase thrombolytic therapy and to the use of such agents as an endogenous fibrinolysis-sparing (with respect to t-PA and urokinase) antithrombotic agent. In addition to the lack of interference with the amidase activity of the fibrinolytic proteases, such fibrinolytic system sparing can be studied by the use of human plasma clots and their lysis by the respective fibrinolytic plasminogen activators.
(§2) Human factors X, Xa, IXa, XIa, and XIIa are purchased from Enzyme Research Laboratories, South Bend, Ind.; human urokinase from Leo Pharmaceuticals, Denmark; and recombinant activated Protein C (aPC) is prepared at Eli Lilly and Co. substantially according to U.S. Patent No. 4,981,952. Chromogenic substrates: N-Benzoyl-Ile-Glu-Gly-Arg-p-nitroanilide (for factor Xa); N-Cbz-D-Arg-Gly-Arg-p-nitroanilide (for factor IXa assay as the factor Xa substrate); Pyroglutamyl-Pro-Arg-p-nitroanilide (for Factor XIa and for aPC); H-D-Pro-Phe-Arg-p-nitroanilide (for factor XIIa); and Pyroglutamyl-Gly-Arg-p-nitroanilide (for urokinase); are purchased from KabiVitrum, Stockholm, Sweden, or from Midwest Biotech, Fishers, Ind. Bovine trypsin is purchased from Worthington Biochemicals, Freehold, N.J., and human plasma kallikrein from Kabi Vitrum, Stockholm, Sweden. Chromogenic substrate H-D-Pro-Phe-Arg-p-nitroanilide for plasma kallikrein is purchased from Kabi Vitrum, Stockholm, Sweden. N-Benzoyl-Phe-Val-Arg-p-nitroanilide, the substrate for human thrombin and for trypsin, is synthesized according to procedures described above for the compounds of the present invention, using known methods of peptide coupling from commercially available reactants or purchased from Midwest Biotech, Fishers, Ind.

Human plasma [1] = test: Human plasma anticoagulation, thrombin time (TT); conditions: concentration required to double the thrombin time, linear extrapolation
Description: (§3) Dog plasma and rat plasma is obtained from conscious mixed-breed hounds (either sex, Hazelton-LRE, Kalamazoo, Mich., U.S.A.) or from anesthetized male Sprague-Dawley rats (Harlan Sprague-Dawley, Inc., Indianapolis, Ind., U.S.A.) by venipuncture into 3.8 percent citrate. Fibrinogen is prepared from in-date ACD human blood as the fraction I-2 according to previous procedures and specifications. […] Human fibrinogen is also purchased as 98 percent pure/plasmin free from American Diagnostica, Greenwich, Conn. Coagulation reagents ACTIN, Thromboplastin, and Human plasma are from Baxter Healthcare Corp., Dade Division, Miami, Fla. Bovine thrombin from Parke-Davis ([…], Mich.) is used for coagulation assays in plasma.
(§4) Coagulation assay procedures are as previously described. […] A CoAScreener coagulation instrument (American LABor, Inc.) is used for all coagulation assay measurements. The prothrombin time (PT) is measured by adding 0.05 mL saline and 0.05 mL Thromboplastin-C reagent to 0.05 mL test plasma. The activated partial thromboplastin time (APTT) is measured by incubation of 0.05 mL test plasma with 0.05 mL Actin reagent for 120 seconds followed by 0.05 mL CaCl2 (0.02M). The thrombin time (TT) is measured by adding 0.05 mL saline and 0.05 mL thrombin (10 NIH units/mL) to 0.05 mL test plasma. The compounds of Formula I are added to human or animal plasma over a wide range of concentrations to determine prolongation effects on the APTT, PT, and TT assays. Linear extrapolations are performed to estimate the concentrations required to double the clotting time for each assay.

Human plasma [2] = test: Human plasma anticoagulation, activated partial thromboplastin time (APTT); conditions: concentration required to double the APTT, linear extrapolation
Description: as §3, §4

Human plasma [3] = test: Human plasma anticoagulation, prothrombin time (PT); conditions: concentration required to double the PT, linear extrapolation
Description: as §3, §4

Bovine trypsin = biological target: T2, Bovine trypsin (Bos taurus, UniProt P00760); test: Kass with trypsin, chromogenic substrate; conditions: substrate N-Benzoyl-Phe-Val-Arg-p-nitroanilide
T2 construct: Bovine trypsin is purchased; purchased Worthington Biochemicals, Freehold, N.J
T2 sequence (P00760 24-246): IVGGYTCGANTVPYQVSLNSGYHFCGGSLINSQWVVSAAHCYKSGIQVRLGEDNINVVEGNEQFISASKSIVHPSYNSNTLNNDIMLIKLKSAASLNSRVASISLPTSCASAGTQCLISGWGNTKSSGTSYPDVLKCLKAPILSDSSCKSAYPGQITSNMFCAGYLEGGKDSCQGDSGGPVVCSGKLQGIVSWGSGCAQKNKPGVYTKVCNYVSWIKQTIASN
Description: as §1, §2

[4] = mean over a range of concentrations, […]

T1 sequence (P00742 235-488 limits assumed): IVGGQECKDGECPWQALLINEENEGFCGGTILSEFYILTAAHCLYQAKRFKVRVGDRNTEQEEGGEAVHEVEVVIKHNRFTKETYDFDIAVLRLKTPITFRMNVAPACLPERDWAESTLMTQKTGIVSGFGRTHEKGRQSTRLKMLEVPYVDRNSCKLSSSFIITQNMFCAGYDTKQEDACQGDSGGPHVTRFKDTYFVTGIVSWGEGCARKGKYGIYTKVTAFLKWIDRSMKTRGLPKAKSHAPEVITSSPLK
T1 sequence (P00742 41-179 partner limits assumed): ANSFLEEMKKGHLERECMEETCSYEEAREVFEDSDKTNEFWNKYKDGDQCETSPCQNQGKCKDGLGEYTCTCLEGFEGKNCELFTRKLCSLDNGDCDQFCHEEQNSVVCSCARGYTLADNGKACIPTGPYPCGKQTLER

Compound	Kass Human Thrombin (Human Thrombin; [4])	Kass Xa (factor Xa)	Kass Trypsin (Bovine trypsin)	Human Plasma Anticoagulation 2× Clotting time TT (Human plasma [1]) [ng/mL]	Human Plasma Anticoagulation 2× Clotting time APTT (Human plasma [2])	Human Plasma Anticoagulation 2× Clotting time PT (Human plasma [3])	Kass Human Thrombin (Human Thrombin)
N=C(N)c1ccc(CNC(=O)[C@@H]2CCCN2C(=O)[C@@H](CCC2CCCCC2)NCC(=O)O)cc1 [Example 88, HOOCCH2 -D-hCha-Pro-p-NHCH2 C6 H4 C(NH)NH2.HCl]	410 × 10^6 (L/mole)	3.9 × 10^6 (L/mole)	–	4	100 ng/mL	200 ng/mL	–
CCC(CC)C(=O)N[C@@H](CCS(C)(=O)=O)C(=O)N1CCC[C@H]1C(=O)NCc1ccc(C(=N)N)cc1 [Example 91, (C2 H5)2 CHCO-Met(O2)-pro-p-NHCH2 C6 H4 C(NH)NH2.HCl]	3.6 × 10^6 (L/mole)	0.007 × 10^6 (L/mole)	–	63	3,000 ng/mL	3,500 ng/mL	–
CCC(CC)C(=O)N[C@@H](CCC(=O)O)C(=O)N1CCC[C@H]1C(=O)NCc1ccc(C(=N)N)cc1 [Example 90, (C2 H5)2 CHCO-Glu-Pro-p-NHCH2 C6 H4 C(NH)NH2.HCl]	0.61 × 10^6 (L/mole)	0.002 × 10^6 (L/mole)	–	330	14,500 ng/mL	14,600 ng/mL	–
HOOCCH2 -D-hPhe-Pro-p-NHCH2 C6 H4 C(NH)NH2.HCl [Example 87]	30 × 10^6 (L/mole)	2.5 × 10^6 (L/mole)	–	9	260 ng/mL	310 ng/mL	–
CCS(=O)(=O)N[C@H](CC1CCCCC1)C(=O)N1CCC[C@H]1C(=O)NCc1ccc(C(=N)N)cc1.Cl [Example 80, EtSO2 -D-Cha-Pro-4-NHCH2 C6 H4 C(NH)NH2.HCl]	1,700 × 10^6 (L/mole)	–	90 × 10^6 (L/mole)	4	40 ng/mL	130 ng/mL	–
NCc1ccc(CNC(=O)[C@@H]2CCCN2C(=O)[C@@H](CC2CCCCC2)NCC(=O)O)cc1 [Example 78, HO2 CCH2 -D-Cha-pro-4-NHCH2 C6 H4 CH2 NH2.HCl]	–	–	8.6 × 10^6 (L/mole)	46	430 ng/mL	760 ng/mL	11
CCS(=O)(=O)N[C@H](CC1CCCCC1)C(=O)N1CCC[C@H]1C(=O)NCc1ccc(CN)cc1 [Example 81, EtSO2 -D-Cha-Pro-4-NHCH2 C6 H4 CH2 NH2.HCl]	5.3 × 10^6 (L/mole)	–	2.1 × 10^6 (L/mole)	110	1,500 ng/mL	2,700 ng/mL	–
N=C(N)c1ccc(CNC(=O)[C@@H]2CCCN2C(=O)[C@H](NCC(=O)O)C2CCCCC2)cc1 [Example 86, HOOCCH2 -D-Chg-Pro-p-NHCH2 C6 H4 C(NH)NH2.HCl]	–	0.63 × 10^6 (L/mole)	–	4	81 ng/mL	180 ng/mL	200
CS(=O)(=O)CC(=O)N[C@H](CC1CCCCC1)C(=O)N1CCC[C@H]1C(=O)NCc1ccc(C(=N)N)cc1 [Example 92, MeSO2 CH2 CO-D-Cha-Pro-p-NHCH2 C6 H4 C(NH)NH2.HCl]	130 × 10^6 (L/mole)	–	7.7 × 10^6 (L/mole)	8.9	210 ng/mL	340 ng/mL	–
CCS(=O)(=O)N[C@H](CC1CCCCC1)C(=O)N1CCC[C@H]1C(=O)NCc1ccnc(N)c1 [Example 83, EtSO2 -D-Cha-Pro-4-NHCH2 -2-aminopyridine.HCl]	2.4 × 10^6 (L/mole)	–	0.03 × 10^6 (L/mole)	91	1,000 ng/mL	1,300 ng/mL	–

Second part, led by results:

Kass Human Thrombin (Human Thrombin; [4])	Kass Xa (factor Xa)	Kass Trypsin (Bovine trypsin)	Compound	Human Plasma Anticoagulation 2× Clotting time TT (Human plasma [1]) [ng/mL]	Human Plasma Anticoagulation 2× Clotting time APTT (Human plasma [2])	Human Plasma Anticoagulation 2× Clotting time PT (Human plasma [3])	Kass Human Thrombin (Human Thrombin)
15 × 10^6 (L/mole)	0.01 × 10^6 (L/mole)	–	Nc1ccc(CNC(=O)[C@@H]2CCCN2C(=O)[C@@H](CC2CCCCC2)NCC(=O)O)c(F)c1 [Example 64, HO2 CCH2 -D-Cha-Pro-4-NHCH2 -3-F-C6 H3 NH2.HCl]	23	900 ng/mL	650 ng/mL	–
12 × 10^6 (L/mole)	–	0.36 × 10^6 (L/mole)	Nc1cc(CCNC(=O)[C@@H]2CCCN2C(=O)[C@@H](CC2CCCCC2)NCC(=O)O)ccn1 [Example 76, HO2 CCH2 -D-Cha-Pro-4-NHCH2 CH2 -2-aminopyridine.HCl]	29	490 ng/mL	560 ng/mL	–
2.9 × 10^6 (L/mole)	–	0.07 × 10^6 (L/mole)	CCS(=O)(=O)N[C@H](CC1CCCCC1)C(=O)N1CCC[C@H]1C(=O)NCc1ccc(N)nc1 [Example 84, EtSO2 -D-Cha-Pro-5-NHCH2 -2-aminopyridine.HCl]	110	1,500 ng/mL	1,900 ng/mL	–
340 × 10^6 (L/mole)	–	3.7 × 10^6 (L/mole)	N=C(N)c1ccc(CNC(=O)[C@@H]2CCCN2C(=O)[C@@H](CC2CCCCC2)NCC(=O)O)nn1 [Example 69, HO2 CCH2 -D-Cha-Pro-3-NHCH2 -6-amidinopyridazine.HCl]	5	110 ng/mL	220 ng/mL	–
0.14 × 10^6 (L/mole)	0.071 × 10^6 (L/mole)	–	N=C(N)c1ccc(CNC(=O)CN(CCc2ccccc2)C(=O)CNCC(=O)O)cc1 [Example 89, HOOCCH2 -Gly-N-C6 H5 CH2 CH2 Gly-p-NHCH2 C6 H4 C(NH)NH2.HCl]	570	51,000 ng/mL	37,000 ng/mL	–
